Reference: paper PMC4700278, “Molecular and Biochemical Analysis of the Estrogenic and Proliferative Properties of Vitamin E Compounds” (Frontiers in Oncology, 2016)

Key:
MDA-MB-231 (ER(−)) cells = experiment: Cell proliferation assay (sulforhodamine B); format: cell-based, human; settings: 500 μM δ-TP or δ-TT; 30 μM lovastatin; 6-day period
Protocol: MCF-7 (ER(+)), T47D (ER(+)), and MDA-MB-231 (ER(−)) cell lines were from ATCC. Cell lines were maintained at 37°C in a humidified incubator in a 5% CO2-enriched atmosphere in T-75 flasks. MCF-7, T47D, and MDA-MB-231 cells were grown routinely in phenol red RPMI 1640 medium supplemented with 5% FBS (Gibco BRL, Life Technologies, Cergy Pontoise, France) and with penicillin–streptomycin. Cells were grown for 24 h before treatment in phenol red-free medium containing 5% DCC-FCS. Cells were seeded into 96-well plates at 2000 cells/well. Treatment media (150 μl/well) was added on the following day and replaced at 48-h intervals until the end of the experiment. Cell density was measured via the sulforhodamine B method ([43]) after 0, 2, 4, 6, and 8 days. The absorbance of SRB was measured directly at 490 nm in the 96-well plates using a multiskan® multisoft reader from Labsystem.
Figure 4 Effect of tocol on ER(+) and ER(−) BC cell proliferation and HMG-CoA reductase activity. (A) Effect of δ-tocols on estrogen and non-estrogen-regulated growth of MCF-7, T47D, and MDA-MB-231 cells. […] Cells were also treated with 30 μM lovastatin (Lova) in the presence or absence of 5 mM M, as described in Section “Materials and Methods.” Values are shown as means and vertical bars represent SEM. The data were analyzed by two-way ANOVA, followed by Bonferroni post hoc test. ***P < 0.001, **P < 0.01, and *P < 0.05 in comparison with control or bare-linked specific control. Ns: not significant. (B) Effect of δ-TT on hydroxymethylglutaryl coenzyme A reductase (HMGR) activity in MCF-7, T47D, and MDA-MB-231 cells. […] Data shown are the mean values ± SEM from three independent experiments performed in triplicate.

[1] = tested on: ER-dependent transcription in MELN cells; experiment: ERE-luciferase reporter assay in MELN cells (MCF-7 stably transfected with ERE-β-globin-tk-Luc); format: cell-based, human; settings: 500 μM, maximal response = 10 nM E2
Description: MELN cells were established by transfecting ER(+) MCF-7 cells with the ERE-β-globin-tk-Luc-SV-Neo plasmid ([36]). HELN cells were generated by transfection of ER(−) HeLa cells with this plasmid. The HELN-ERα, HELN-ERβ, HELN-ΔAB-ERα, and HELN-ΔAB-ERβ cell lines then underwent a second transfection with the corresponding pSG5-puro plasmids (pSG5-ERα-puro, pSG5-ERβ-puro, pSG5-ΔAB-ERα-puro, and pSG5-ΔAB-ERβ-puro, respectively) and expressed wild-type or mutated ERα or ERβ ([39], [40]). […] Comparison of the activities toward hERα and hERβ with the truncated ΔAB-ERα and ΔAB-ERβ provides a powerful model to identify partial ER agonists (requiring ligand-independent AF-1 to induce maximal ER activation). […] Cells were grown routinely in DMEM growth medium supplemented with 5% FBS (Gibco BRL, Life Technologies, Cergy pontoise, France). Cells were incubated at 37°C in a humidified 5% CO2 incubator. For experiments, cells were grown for 5 days in phenol red-free medium, containing 6% dextran-coated charcoal-treated FCS (DCC-FCS) with penicillin–streptomycin. Medium was changed after 2 days. On day 5, cells were treated or not with the compounds, which were dissolved in ethanol. For each condition, 15 × 10^3 cells were seeded per well in 12-well plates and treated, as described above, for 8 h in a final volume of 0.5 ml. At the end of the treatment, cells were washed with PBS and lysed in 150 μl lysis buffer (Promega, Charbonnières, France). Luciferase activity was measured using the luciferase assay reagent (Promega), according to the manufacturer’s instructions. Protein concentrations were measured using the Bradford technique ([41]) to normalize the luciferase activity data. For each condition, average luciferase activity was calculated from the data of three independent wells.
Figure 3 Measurement of estrogenicity of tocols in vitro. (A) Dose–response curve of the effect of tocols on MCF-7 cells stably transfected with the ERE-β-globin-tk-Luc plasmid (MELN cells). […] Data shown are the mean values ± SEM from three independent experiments. […] MCF-7 extracts were analyzed for the presence of ERα by western blotting using GAPDH as a control. […] The western blot shown is representative of three independent experiments. The ratio of ERα to GAPDH levels in each experiment was determined densitometrically and normalized to control value (taken to be 1). (D) Effect of δ-tocols on estrogen response element-dependent luciferase activity in HELN cells, which are HELA cells transfected with either fully functional ERα or ERβ or their mutated versions containing a deletion the AB domain (ΔAB). […] Data shown are the mean values ± SEM from three independent experiments. […] Cells were treated with 500 μM δ-tocols in the presence or in the absence of ICI. The relative expression of TGFα, PR, and Ps2 (TFF1) after 16 h was analyzed by quantitative RT-PCR. Data shown are the mean values ± SEM from three independent experiments.

MCF-7 (ER(+)) cells = experiment: Cell proliferation assay (sulforhodamine B); format: cell-based, human; settings: 500 μM δ-TP or δ-TT; 30 μM lovastatin; 6-day period
Protocol: (§1) MCF-7 (ER(+)), T47D (ER(+)), and MDA-MB-231 (ER(−)) cell lines were from ATCC. Cell lines were maintained at 37°C in a humidified incubator in a 5% CO2-enriched atmosphere in T-75 flasks. […] Cells were grown for 24 h before treatment in phenol red-free medium containing 5% DCC-FCS. Cells were seeded into 96-well plates at 2000 cells/well. Treatment media (150 μl/well) was added on the following day and replaced at 48-h intervals until the end of the experiment. Cell density was measured via the sulforhodamine B method ([43]) after 0, 2, 4, 6, and 8 days. The absorbance of SRB was measured directly at 490 nm in the 96-well plates using a multiskan® multisoft reader from Labsystem.

T47D (ER(+)) cells = experiment: Cell proliferation assay (sulforhodamine B); format: cell-based, human; settings: 500 μM δ-TP or δ-TT; 30 μM lovastatin; 6-day period
Protocol: as §1

ERα = biological target: T1, ERα (Homo sapiens, UniProt P03372); experiment: ERE-luciferase reporter assay in HELN-ERα cells; format: cell-based; set-up: endogenous in cells; host or cells: MCF-7; settings: 500 μM
T1 sequence (P03372 1-595): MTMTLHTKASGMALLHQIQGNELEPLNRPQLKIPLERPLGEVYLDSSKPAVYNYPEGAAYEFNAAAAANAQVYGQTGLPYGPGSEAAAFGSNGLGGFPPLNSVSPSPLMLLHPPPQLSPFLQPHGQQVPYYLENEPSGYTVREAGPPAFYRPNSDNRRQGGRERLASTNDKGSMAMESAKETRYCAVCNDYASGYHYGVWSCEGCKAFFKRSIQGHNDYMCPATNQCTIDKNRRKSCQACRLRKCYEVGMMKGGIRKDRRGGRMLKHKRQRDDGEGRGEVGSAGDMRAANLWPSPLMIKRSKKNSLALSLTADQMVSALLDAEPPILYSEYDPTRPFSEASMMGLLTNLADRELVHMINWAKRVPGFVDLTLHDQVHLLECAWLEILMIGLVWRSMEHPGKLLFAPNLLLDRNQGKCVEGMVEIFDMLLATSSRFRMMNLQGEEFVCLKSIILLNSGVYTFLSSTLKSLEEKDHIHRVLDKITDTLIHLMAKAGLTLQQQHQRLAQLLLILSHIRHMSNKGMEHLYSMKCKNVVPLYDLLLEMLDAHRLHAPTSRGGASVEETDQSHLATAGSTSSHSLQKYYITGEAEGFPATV
Description: MELN cells were established by transfecting ER(+) MCF-7 cells with the ERE-β-globin-tk-Luc-SV-Neo plasmid ([36]). HELN cells were generated by transfection of ER(−) HeLa cells with this plasmid. The HELN-ERα, HELN-ERβ, HELN-ΔAB-ERα, and HELN-ΔAB-ERβ cell lines then underwent a second transfection with the corresponding pSG5-puro plasmids (pSG5-ERα-puro, pSG5-ERβ-puro, pSG5-ΔAB-ERα-puro, and pSG5-ΔAB-ERβ-puro, respectively) and expressed wild-type or mutated ERα or ERβ ([39], [40]). […] Luciferase activity was measured using the luciferase assay reagent (Promega), according to the manufacturer’s instructions. Protein concentrations were measured using the Bradford technique ([41]) to normalize the luciferase activity data. For each condition, average luciferase activity was calculated from the data of three independent wells.
Figure 3 Measurement of estrogenicity of tocols in vitro. […] MCF-7 extracts were analyzed for the presence of ERα by western blotting using GAPDH as a control. […] The ratio of ERα to GAPDH levels in each experiment was determined densitometrically and normalized to control value (taken to be 1). […] The relative expression of TGFα, PR, and Ps2 (TFF1) after 16 h was analyzed by quantitative RT-PCR. […]

Row | SMILES | effect on MDA-MB-231 cell proliferation (MDA-MB-231 (ER(−)) cells) | luciferase activity as % of the maximal ER-dependent response [1] | effect on MCF-7 cell proliferation (MCF-7 (ER(+)) cells) | effect on T47D cell proliferation (T47D (ER(+)) cells) | ER-dependent luciferase activity through ERα (ERα)
1 | Cc1cc(O)cc2c1OC(C)(CCCC(C)CCCC(C)CCCC(C)C)CC2 (stereo not shown) [δ-TP, δ-tocopherol] | no impact | 76.5% | significant stimulation | significant stimulation | activate ER-dependent luciferase activity
2 | CC(C)=CCC/C(C)=C/CC/C(C)=C/CC[C@]1(C)CCc2cc(O)cc(C)c2O1 [δ-TT, δ-tocotrienol] | inhibited the proliferation | 86.6% | inhibited the proliferation | inhibited the proliferation | activate ER-dependent luciferase activity
